One data set relates to PBMCs. Description: Cell viability by trypan blue staining after 24 hours. The data set is classed as cell-based, human. As for the experimental part:
(§1) Figure 1 Screening of candidate LPAs by measuring the change in multiply spliced HIV transcripts after activation. Each drug was tested in PBMCs from 2 ART-suppressed study participants (denoted in the legend by varying symbol shapes). PBMCs were aliquoted into wells at 6 × 10^6 cells/well. After activation, the cells were cultured with antiretrovirals in the presence of individual drugs in DMSO or DMSO alone as control. All conditions were tested in the presence of CD3/28 T cell–activating beads, except for the unactivated DMSO condition. (A) After 24 hours, the viability was measured by trypan blue staining and then normalized to the levels of the activated DMSO (% of activated DMSO). Bars indicate medians. (B) Total cellular RNA was extracted, and the levels of multiply spliced HIV transcripts (TatRev) were measured by RT-ddPCR, normalized to 1 μg of total cellular RNA, and expressed as a percentage of the activated DMSO control (% of activated DMSO). RT-dd, reverse transcription digital droplet; vRNA, viral RNA; HAT, histone acetyltransferase.
For quantification of cell-associated HIV transcripts, PBMCs were harvested either after 24 hours or after 6 days. The cell viabilities were measured by trypan blue staining; then the cells were pelleted by centrifuging at 300g for 6 minutes and stored at –80°C. For quantification of virion-associated HIV RNA, cell culture supernatant was collected from 6 × 10^6 PBMCs that were treated and activated for 6 days as described above. Residual cells and cellular debris were subsequently removed from the supernatant by differential centrifugation (300g for 6 minutes, then 20,000g for 10 minutes), and the supernatant was stored at –80°C.

Data set [1] concerns HIV transcripts (TAR, LLTR, Pol, PolyA, TatRev). Description: Latency reversal assay: cell-associated HIV transcripts (RT-ddPCR) 24 hours after anti-CD3/CD28 activation of PBMCs from ART-suppressed PWH. The data set is classed as cell-based. Also noted: Elongated (LLTR) HIV transcripts, median relative to activated DMSO, initial screening / Midtranscribed (Pol) HIV transcripts, median relative to activated DMSO, initial screening / Multiply spliced (TatRev) HIV transcripts, median relative to activated DMSO, initial screening: concentration or dose not given beside the values. The following applies: for Effect on HIV transcripts in the initial drug screen (in words) / Multiply spliced (TatRev) HIV transcripts, median relative to activated DMSO, initial screening / Completed (PolyA) HIV transcripts, median relative to activated DMSO, initial screening: initial screening, 2 participants; for Effect on HIV transcripts in the initial drug screen (in words): 24 hours after activation; for Multiply spliced (TatRev) HIV transcripts, median relative to activated DMSO, initial screening / Multiply spliced HIV transcripts (TatRev) (Fig 1B) / Completed (PolyA) HIV transcripts, median relative to activated DMSO, initial screening: 24 hours; for Multiply spliced (TatRev) HIV transcripts, median relative to activated DMSO, initial screening: Figure 1B; for Multiply spliced (TatRev) HIV transcripts, median relative to activated DMSO, initial screening / Completed (PolyA) HIV transcripts, median relative to activated DMSO, initial screening: Supplemental Figure 2; for mrna remaining at 0.1 µM: 100nM. As for the experimental part: We selected 26 small molecules targeting pathways implicated in HIV transcription or the blocks to HIV transcription underlying latency (Supplemental Table 1). […] Initial screening of all drugs was performed in freshly isolated PBMCs from 2 ART-suppressed individuals (Figure 1 and Supplemental Figure 2). PBMCs were cultured in the presence of individual drugs in DMSO or DMSO alone as a control, subsequently activated (anti-CD3/CD28), and harvested after 24 hours. […] The progression through different blocks to HIV transcription was quantified by measuring the levels of initiated (TAR), 5′ elongated (LLTR), midtranscribed/unspliced (Pol), completed (PolyA), and multiply spliced (TatRev) HIV transcripts. The levels of those HIV transcripts were normalized to 1 μg of total cellular RNA (to normalize for the effect of the drug on global cellular transcription) and expressed as a percentage of the activated DMSO control.
as §1
The ability of our candidate LPAs to inhibit HIV transcriptional progression after activation was examined in PBMCs from a minimum of 7 PWH per drug tested (Figure 3). PBMCs were cultured in the presence of individual drugs in DMSO or in DMSO alone as a control, subsequently activated (anti-CD3/CD28), and harvested after 24 hours.
Each drug was tested in PBMCs from 7 ART-suppressed study participants. The PBMCs were aliquoted into wells at 6 × 10^6 cells/well. After activation, the cells were cultured with antiretrovirals in the presence of individual drugs in DMSO or DMSO alone as control. All conditions were tested in the presence of CD3/28 T cell–activating beads, except for the unactivated DMSO condition. After 24 hours, total RNA was extracted, and the progression through different stages of HIV transcription was quantified by measuring the levels of initiated (TAR), 5′ elongated (LLTR), midtranscribed/unspliced (Pol), completed (PolyA), and multiply spliced (TatRev) HIV transcripts. (A) The levels of all HIV transcripts were normalized to 1 μg of total cellular RNA and expressed as a percentage of the activated DMSO control (% of activated DMSO). Medians are shown as well as the individual values per study participant in different colors. (B–D) The effect of each drug on HIV transcriptional progression after activation was analyzed by the ratio of one HIV transcript to another. Ratios are independent of HIV infection frequency or normalization to cell numbers. Shown are the proportion of (B) all HIV transcripts that were elongated (LLTR/TAR), (C) elongated HIV transcripts that were completed spliced (PolyA/LLTR), and (D) completed transcripts that were multiply spliced (TatRev/PolyA).

Setting [2] is: 10μM, 24 h after αCD3/28 activation, each column one participant.

Structures are written as SMILES. Several values for one entry are separate records, joined by “and”; a condition that tells them apart may be missing. Equal values may be shown once. Read-outs that look alike come from different tables or passages of the source.

`Nc1nc2nn[nH]c2c(=O)[nH]1` [8-azaguanine]: in the data set with PBMCs (study participant 150a), the “Viability (Fig 1A)” value is reported as 106.88 % of activated DMSO. Moreover, the “Viability (Fig 1A)” value in the data set with PBMCs (study participant 152) was 98.65 % of activated DMSO. In data set [1], the “Effect on HIV transcripts in the initial drug screen (in words)” value (“Effect on HIV transcripts” below) is “did not observe decreases” and the “Multiply spliced (TatRev) HIV transcripts, median relative to activated DMSO, initial screening” value is listed as “increase in multiply spliced transcripts”.
Regarding `CCCCCCCCCCCCCCC=C(C(=O)OCC)C(=O)OCC` [SPV-106], the “Viability (Fig 1A)” value in the data set with PBMCs (study participant 150a) is given as 103.1 % of activated DMSO. In addition, in the data set on PBMCs (study participant 152), the “Viability (Fig 1A)” value was 97.61 % of activated DMSO. Moreover, in data set [1] (setting [2]), the “LLTR HIV transcripts (DMSO+αCD3/28 = 100)” value was 123.81 and 93.28; the “Pol HIV transcripts (DMSO+αCD3/28 = 100)” value is 71.05 and 12.29; the “PolyA HIV transcripts (DMSO+αCD3/28 = 100)” value was 64.82 and 38.96; the “TatRev HIV transcripts (DMSO+αCD3/28 = 100)” value was 60.34 and 263.16. Moreover, the “Effect on HIV transcripts” value in data set [1] is “did not observe any reduction”. Besides, the “Multiply spliced HIV transcripts (TatRev) (Fig 1B)” value in data set [1] (study participant 150a) was 60.34 % of activated DMSO. Further, the “Multiply spliced HIV transcripts (TatRev) (Fig 1B)” value in data set [1] (study participant 152) is reported as 263.16 % of activated DMSO.
As for `CC(=O)Oc1ccccc1C(=O)O` [aspirin], the “Viability (Fig 1A)” value is reported as 99.56 % of activated DMSO in the data set with PBMCs (study participant 150a) and 95.5 % of activated DMSO in the data set on PBMCs (study participant 152). Further, in data set [1], the “Effect on HIV transcripts” value is on record as “did not observe much reduction”.
Take `COc1cc(F)ccc1-c1ncnc(Nc2cccc(C[S@](C)(=N)=O)c2)n1` [atuveciclib]: the entries for the “Viability (Fig 1A)” value with PBMCs (study participant 150a) and in the data set on PBMCs (study participant 152) were 108.3 % of activated DMSO and 95.7 % of activated DMSO, respectively. Also, the “Multiply spliced (TatRev) HIV transcripts, median relative to activated DMSO, initial screening” value in data set [1] is 46%.
Regarding `Nc1ncnc2c1ncn2[C@@H]1O[C@H](CO)C[C@H]1O` [cordycepin], the “Viability (Fig 1A)” value with PBMCs (study participant 150a) is recorded as 101.9 % of activated DMSO; in the data set with PBMCs (study participant 152) it was 92.02 % of activated DMSO. For the same compound, in data set [1], the “Effect on HIV transcripts” value is “did not observe any reduction”.
On to `C[C@H]1O[C@@H](O[C@H]2[C@@H](O)C[C@H](O[C@H]3[C@@H](O)C[C@H](O[C@H]4CC[C@@]5(C)[C@H](CC[C@@H]6[C@@H]5C[C@@H](O)[C@]5(C)[C@@H](C7=CC(=O)OC7)CC[C@]65O)C4)O[C@@H]3C)O[C@@H]2C)C[C@H](O)[C@@H]1O` [digoxin], for which the figures for the “Viability (Fig 1A)” value in the data set on PBMCs (study participant 150a) and in the data set on PBMCs (study participant 152) were 98.44 % of activated DMSO and 105.27 % of activated DMSO, respectively. Besides, the mrna remaining at 0.0025 µM in data set [1] (Human immunodeficiency virus 1, PBMC, 24 h, 2.5nM, 24 h after αCD3/28 activation, each column one participant, read-out: PolyA HIV transcripts (DMSO+αCD3/28 = 100)) came out at 87%. Further, the “Effect on HIV transcripts” value in data set [1] is “did not observe decreases”.
For the compound `Cn1cc(C2=C(c3cn(C4CCN(Cc5ccccn5)CC4)c4ccccc34)C(=O)NC2=O)c2ccccc21` [enzastaurin], the “Viability (Fig 1A)” value in the data set on PBMCs (study participant 150a) was 100.98 % of activated DMSO; with PBMCs (study participant 152) it was 98.98 % of activated DMSO.
On to `Nc1ccc(O)c(C(=O)O)c1` [mesalamine], for which the “Viability (Fig 1A)” value is reported as 102.78 % of activated DMSO in the data set with PBMCs (study participant 150a) and 98.77 % of activated DMSO with PBMCs (study participant 152). In data set [1], the “Effect on HIV transcripts” value is “did not observe any reduction”.
`Oc1ccc(/C=C/c2cc(O)cc(O)c2)cc1` [resveratrol]: the results for the “Viability (Fig 1A)” value in the data set with PBMCs (study participant 150a) and with PBMCs (study participant 152) were 102.48 % of activated DMSO and 91.76 % of activated DMSO, respectively.
Take `CN1CCN(c2nc(C3=C(c4c[nH]c5ccccc45)C(=O)NC3=O)c3ccccc3n2)CC1` [sotrastaurin]: the “Viability (Fig 1A)” value is 103.88 % of activated DMSO in the data set on PBMCs (study participant 150a) and 98.33 % of activated DMSO with PBMCs (study participant 152). For the same compound, the mrna remaining at 0.1 µM in data set [1] (Human immunodeficiency virus 1, PBMC, 24 h, 24 h after αCD3/28 activation, each column one participant, read-out: LLTR HIV transcripts (DMSO+αCD3/28 = 100)) is 99.4%; in data set [1] (Human immunodeficiency virus 1, PBMC, 24 h, 24 h after αCD3/28 activation, each column one participant, read-out: Pol HIV transcripts (DMSO+αCD3/28 = 100)), 51.5%; in data set [1] (Human immunodeficiency virus 1, PBMC, 24 h, 24 h after αCD3/28 activation, each column one participant, read-out: PolyA HIV transcripts (DMSO+αCD3/28 = 100)), 39.3%. In addition, the “Completed (PolyA) HIV transcripts, median relative to activated DMSO, initial screening” value in data set [1] was determined as 41%.
As to `CC(=O)S[C@@H]1CC2=CC(=O)CC[C@]2(C)[C@H]2CC[C@@]3(C)[C@@H](CC[C@@]34CCC(=O)O4)[C@H]12` [spironolactone], the “Viability (Fig 1A)” value is 102.53 % of activated DMSO in the data set on PBMCs (study participant 150a) and 102.65 % of activated DMSO in the data set with PBMCs (study participant 152). In addition, the “Effect on HIV transcripts” value in data set [1] was “little reduction”.
Consider `CN[C@@H]1C[C@H]2O[C@@](C)([C@@H]1OC)n1c3ccccc3c3c4c(c5c6ccccc6n2c5c31)C(=O)NC4` [staurosporine], for which the “Viability (Fig 1A)” value in the data set on PBMCs (study participant 150a) was 109.29 % of activated DMSO; in the data set on PBMCs (study participant 152), 100.37 % of activated DMSO. Also, in data set [1], the “Completed (PolyA) HIV transcripts, median relative to activated DMSO, initial screening” value worked out at 41%.

The record behind these values is PMC11466185, “Mechanisms and efficacy of small molecule latency-promoting agents to inhibit HIV reactivation ex vivo” (JCI Insight, 2024).
